Measurements as given in patent US20250313535A1, “ALPHA 4 BETA 7 INTEGRIN MODULATORS AND USES THEREOF” (DICE MOLECULES SV, INC., priority 2022, published 2025).

Legend:
α4β7 integrin = α4β7 integrin (Homo sapiens (Human), UniProt P13612+P26010); assay: Integrin Adhesion Assay: Protocol 1 (MAdCAM-coated plate, RPMI-8866 cells, CellTiter GLO readout); format: cell-based; details: integrin adhesion assay; determined by at least one of the assays described (protocol not specified)
Method in brief: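 RPMI-8866 cells (2×10^6 per mL) added with compounds (1% DMSO) to MAdCAM-coated wells blocked in HEPES/NaCl buffer with 1 mM MnCl2, 0.1 mM CaCl2, 1% BSA; 1 h at 37° C, 5% CO2. After four washes, bound cells read by CellTiter GLO luminescence; % inhibition vs DMSO and control wells, 4-parameter fit.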

α4β1 integrin = α4β1 integrin (Homo sapiens (Human), UniProt P05556+P13612); assay: Integrin Adhesion Assay: Protocol 2 (VCAM-coated plate, Jurkat cells, CellTiter GLO readout); format: cell-based; details: determined by at least one of the assays described (protocol not specified)
Method in brief: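 Jurkat cells (2×10^6 per mL) adhered to VCAM-coated (0.1 ug/well), BSA-blocked wells with compound (1% DMSO) for 1 h at 37° C in 10 mM HEPES, 150 mM NaCl, 1 mM MnCl2, 0.1 mM CaCl2. After four washes, bound cells were quantified by CellTiter-Glo luminescence. Percent inhibition versus DMSO and control-compound wells was fitted to a 4-parameter curve.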

patients = details: clinical trials; at the end of one year of treatment; cited from earlier work

α4β1 integrin, sequence (P13612 34-1032): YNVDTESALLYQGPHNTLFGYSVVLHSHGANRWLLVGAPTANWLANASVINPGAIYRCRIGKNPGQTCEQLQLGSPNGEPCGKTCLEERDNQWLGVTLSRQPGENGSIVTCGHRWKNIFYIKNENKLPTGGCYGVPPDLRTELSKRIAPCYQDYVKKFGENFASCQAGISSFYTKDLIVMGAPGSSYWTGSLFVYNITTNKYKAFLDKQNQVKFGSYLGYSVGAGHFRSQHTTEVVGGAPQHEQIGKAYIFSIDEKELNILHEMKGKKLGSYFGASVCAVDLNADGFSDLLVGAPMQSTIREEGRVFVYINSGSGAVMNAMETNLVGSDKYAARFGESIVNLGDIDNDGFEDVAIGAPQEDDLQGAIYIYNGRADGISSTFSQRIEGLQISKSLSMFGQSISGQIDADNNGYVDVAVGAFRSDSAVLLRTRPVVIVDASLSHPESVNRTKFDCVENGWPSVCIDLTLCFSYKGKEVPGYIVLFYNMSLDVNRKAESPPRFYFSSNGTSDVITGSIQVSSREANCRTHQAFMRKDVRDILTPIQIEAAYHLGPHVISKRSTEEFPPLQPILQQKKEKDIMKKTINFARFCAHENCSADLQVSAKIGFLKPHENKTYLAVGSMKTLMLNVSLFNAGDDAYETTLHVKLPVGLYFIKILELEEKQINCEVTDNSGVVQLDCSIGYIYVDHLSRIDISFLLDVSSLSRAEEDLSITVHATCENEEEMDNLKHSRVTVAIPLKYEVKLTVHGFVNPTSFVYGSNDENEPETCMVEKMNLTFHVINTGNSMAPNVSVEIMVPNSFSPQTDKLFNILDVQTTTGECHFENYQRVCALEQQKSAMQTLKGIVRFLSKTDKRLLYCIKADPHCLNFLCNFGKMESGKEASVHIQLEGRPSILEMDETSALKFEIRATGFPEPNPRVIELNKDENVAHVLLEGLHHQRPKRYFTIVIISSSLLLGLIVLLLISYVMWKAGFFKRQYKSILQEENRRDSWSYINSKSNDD
α4β1 integrin, sequence (P05556 21-798): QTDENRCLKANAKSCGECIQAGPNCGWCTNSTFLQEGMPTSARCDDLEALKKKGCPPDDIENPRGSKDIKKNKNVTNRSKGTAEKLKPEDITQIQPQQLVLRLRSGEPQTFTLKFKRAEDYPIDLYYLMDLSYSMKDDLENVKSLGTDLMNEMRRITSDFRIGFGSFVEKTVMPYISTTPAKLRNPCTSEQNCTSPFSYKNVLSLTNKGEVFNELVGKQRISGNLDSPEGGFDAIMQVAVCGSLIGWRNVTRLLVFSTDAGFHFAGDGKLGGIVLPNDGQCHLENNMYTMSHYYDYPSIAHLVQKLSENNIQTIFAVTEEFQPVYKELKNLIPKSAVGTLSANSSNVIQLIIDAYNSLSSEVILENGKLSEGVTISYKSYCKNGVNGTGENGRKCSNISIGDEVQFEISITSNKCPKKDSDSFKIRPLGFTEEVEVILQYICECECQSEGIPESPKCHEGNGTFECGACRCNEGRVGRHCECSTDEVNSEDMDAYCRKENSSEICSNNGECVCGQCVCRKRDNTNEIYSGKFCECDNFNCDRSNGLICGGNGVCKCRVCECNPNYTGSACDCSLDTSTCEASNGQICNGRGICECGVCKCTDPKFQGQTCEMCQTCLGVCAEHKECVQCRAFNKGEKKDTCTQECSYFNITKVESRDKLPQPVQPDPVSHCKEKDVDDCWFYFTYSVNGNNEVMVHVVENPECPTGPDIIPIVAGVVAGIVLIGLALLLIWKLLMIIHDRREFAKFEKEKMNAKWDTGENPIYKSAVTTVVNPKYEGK
α4β7 integrin, sequence (P13612 34-1032): as the sequence (P13612 34-1032) above
α4β7 integrin, sequence (P26010 20-798): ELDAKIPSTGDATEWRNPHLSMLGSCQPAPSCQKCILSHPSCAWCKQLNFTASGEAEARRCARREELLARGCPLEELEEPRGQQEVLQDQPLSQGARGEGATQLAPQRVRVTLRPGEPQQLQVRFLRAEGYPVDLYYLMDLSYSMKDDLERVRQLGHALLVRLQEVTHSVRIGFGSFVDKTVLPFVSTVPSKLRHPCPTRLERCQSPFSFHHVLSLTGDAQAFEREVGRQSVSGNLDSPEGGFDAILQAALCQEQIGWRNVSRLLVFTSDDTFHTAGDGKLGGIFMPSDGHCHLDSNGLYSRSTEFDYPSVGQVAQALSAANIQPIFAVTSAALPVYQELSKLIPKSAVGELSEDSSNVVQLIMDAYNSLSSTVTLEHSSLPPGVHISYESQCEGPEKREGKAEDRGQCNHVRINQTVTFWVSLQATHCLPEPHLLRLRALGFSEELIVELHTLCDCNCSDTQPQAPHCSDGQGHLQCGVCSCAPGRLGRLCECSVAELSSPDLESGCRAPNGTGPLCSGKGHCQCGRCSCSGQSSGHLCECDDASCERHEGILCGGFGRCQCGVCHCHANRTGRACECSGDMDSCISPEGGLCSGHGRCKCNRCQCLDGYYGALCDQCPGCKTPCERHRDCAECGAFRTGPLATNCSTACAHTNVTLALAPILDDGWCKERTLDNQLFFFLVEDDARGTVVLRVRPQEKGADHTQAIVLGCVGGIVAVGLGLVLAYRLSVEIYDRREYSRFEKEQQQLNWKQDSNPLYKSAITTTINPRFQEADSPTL

Molecule | IC50 (α4β7 integrin) [µM] | IC50 (α4β1 integrin) [µM] | patients receiving ENTYVIO achieved remission (patients)
Cn1ccc(=O)n(-c2cccc3c(C[C@H](NC(=O)C(C)(C)c4cccc(-c5ccccc5)c4)C(=O)O)cccc23)c1=O [Compound 176] | 0.1 to 1 | > 1 | –
Cn1ccc(=O)n(-c2cccc3c(C[C@H](NC(=O)C(C)(C)CSc4cccc(C(F)(F)F)c4)C(=O)O)cccc23)c1=O [Compound 177] | > 1 | > 1 | –
Cn1ccc(=O)n(-c2cccc3c(C[C@H](NC(=O)C(C)(C)c4ccc(Oc5ccccc5)cc4)C(=O)O)cccc23)c1=O [Compound 178] | > 1 | > 1 | –
Cc1ccccc1-c1cccc(C(F)(F)C(=O)N[C@@H](Cc2cccc3c(-n4c(=O)ccn(C)c4=O)cccc23)C(=O)O)c1 [Compound 179] | > 1 | > 1 | –
O=C(N[C@@H](Cc1cccc2c(-c3cccc4ccncc34)nccc12)C(=O)O)c1c(F)cc(N2CCOC[C@@H]2C(F)(F)F)cc1F [Compound 220] | 0.01 to 0.1 | > 1 | –
O=C(N[C@@H](Cc1cccc2c(-c3cccc4ccncc34)nccc12)C(=O)O)c1c(F)cc(CN2CCOCC2)cc1F [Compound 223] | > 1 | > 1 | –
Cn1ccc(C(F)(F)F)c(-c2nccc3c(C[C@H](NC(=O)c4c(Cl)cc(N5CCOC[C@@H]5C(F)(F)F)cc4CN4CCC(F)(F)CC4)C(=O)O)cccc23)c1=O [Compound 224] | 0.01 to 0.1 | > 1 | –
Cn1ccc(C(F)(F)F)c(-c2nccc3c(C[C@H](NC(=O)c4c(CN5CCOCC5)cc(N5CCOC[C@@H]5C(F)(F)F)cc4C(F)(F)F)C(=O)O)cccc23)c1=O [Compound 227] | > 1 | > 1 | –
Cn1ccc(C(F)(F)F)c(-c2nccc3c(C[C@H](NC(=O)c4cc(F)cc(CSc5ccccc5)c4)C(=O)O)cccc23)c1=O [Compound 229] | > 1 | > 1 | –
Cn1ccc(C(F)(F)F)c(-c2nccc3c(C[C@H](NC(=O)c4c(F)cc(CN5CCOCC5)cc4F)C(=O)O)cccc23)c1=O [Compound 246] | 0.1 to 1 | > 1 | –
CN1CCN(c2cc(F)c(C(=O)N[C@@H](Cc3cccc4c(-c5c(C(F)(F)F)ccn(C)c5=O)nccc34)C(=O)O)c(F)c2)[C@@H](C(F)(F)F)C1 [Compound 249] | 0.01 to 0.1 | > 1 | –
O=C(N[C@@H](Cc1cccc2c(-c3cccc4ccncc34)nccc12)C(=O)O)c1c(F)cc(NCC(F)(F)F)cc1CN1CCCC1 [Compound 256] | 0.01 to 0.1 | > 1 | –
Cn1ccc(C(F)(F)F)c(-c2nccc3c(C[C@H](NC(=O)c4c(F)cc(N5CCOC[C@H]5C5CC5)cc4F)C(=O)O)cccc23)c1=O [Compound 257] | 0.01 to 0.1 | > 1 | –
Cn1ccc(C(F)(F)F)c(-c2nccc3c(C[C@H](NC(=O)c4c(F)cccc4C(F)(F)F)C(=O)O)cccc23)c1=O [Compound 258] | 0.1 to 1 | > 1 | –
CCOCc1cc(OC)c(-c2nccc3c(C[C@H](NC(=O)c4c(F)cccc4F)C(=O)O)cccc23)c(OC)c1 [Compound 260] | 0.01 to 0.1 | 0.1 to 1 | –
vedolizumab [ENTYVIO] | – | – | approximately 30%

Second part, led by results:

IC50 (α4β7 integrin) [µM] | IC50 (α4β1 integrin) [µM] | Molecule | patients receiving ENTYVIO achieved remission (patients)
< 0.01 | > 1 | Cn1ccc(C(F)(F)F)c(-c2nccc3c(C[C@H](NC(=O)c4c(F)cccc4F)C(=O)O)cccc23)c1=O [Compound 210] | –
0.01 to 0.1 | > 1 | Cn1ccc(C(F)(F)F)c(-c2nccc3c(C[C@H](NC(=O)c4c(F)cc5nc(CC(F)(F)F)[nH]c5c4F)C(=O)O)cccc23)c1=O [Compound 213] | –
< 0.01 | > 1 | Cn1ccc(C(F)(F)F)c(-c2nccc3c(C[C@H](NC(=O)c4c(F)cc(N5CCOC[C@@H]5C(F)(F)F)cc4F)C(=O)O)cccc23)c1=O [Compound 214] | –
< 0.01 | > 1 | Cc1cc(N2CCOC[C@@H]2C(F)(F)F)cc(F)c1C(=O)N[C@@H](Cc1cccc2c(-c3c(C(F)(F)F)ccn(C)c3=O)nccc12)C(=O)O [Compound 215] | –
0.01 to 0.1 | > 1 | C[C@H]1COCCN1c1cc(F)c(C(=O)N[C@@H](Cc2cccc3c(-c4c(C(F)(F)F)ccn(C)c4=O)nccc23)C(=O)O)c(F)c1 [Compound 216] | –
< 0.01 | > 1 | Cn1ccc(C(F)(F)F)c(-c2nccc3c(C[C@H](NC(=O)c4c(F)cc(N5CCOCC56CC6)cc4F)C(=O)O)cccc23)c1=O [Compound 217] | –
0.01 to 0.1 | > 1 | Cn1ccc(C(F)(F)F)c(-c2nccc3c(C[C@H](NC(=O)c4c(F)cc(N5CCOC[C@H]5C(F)(F)F)cc4F)C(=O)O)cccc23)c1=O [Compound 218] | –
< 0.01 | > 1 | O=C(N[C@@H](Cc1cccc2c(-c3cccc4ccncc34)nccc12)C(=O)O)c1c(F)cc(N(CC(F)(F)F)CC(F)(F)F)cc1CN1CCCC1 [Compound 222] | –
< 0.01 | > 1 | Cn1ccc(C(F)(F)F)c(-c2nccc3c(C[C@H](NC(=O)c4c(Cl)cc(N5CCOC[C@@H]5C(F)(F)F)cc4CN4CCOCC4)C(=O)O)cccc23)c1=O [Compound 225] | –
< 0.01 | > 1 | Cn1ccc(C(F)(F)F)c(-c2nccc3c(C[C@H](NC(=O)c4c(F)cc(N5CCOC[C@@H]5C(F)(F)F)cc4CN4CCC(F)(F)CC4)C(=O)O)cccc23)c1=O [Compound 226] | –
< 0.01 | > 1 | Cn1ccc(C(F)(F)F)c(-c2nccc3c(C[C@H](NC(=O)c4c(F)cc(N5CCOC[C@@H]5C(F)(F)F)cc4CN4CCOCC4)C(=O)O)cccc23)c1=O [Compound 245] | –
< 0.01 | > 1 | CN1CCN(Cc2cc(N3CCOC[C@@H]3C(F)(F)F)cc(F)c2C(=O)N[C@@H](Cc2cccc3c(-c4c(C(F)(F)F)ccn(C)c4=O)nccc23)C(=O)O)CC1 [Compound 248] | –
< 0.01 | > 1 | Cn1ccc(C(F)(F)F)c(-c2nccc3c(C[C@H](NC(=O)c4c(F)cc(N5CCOC[C@@H]5C5CC5)cc4F)C(=O)O)cccc23)c1=O [Compound 251] | –
< 0.01 | > 1 | Cn1ccc(C(F)(F)F)c(-c2nccc3c(C[C@H](NC(=O)c4c(F)cc(N(CC(F)(F)F)CC(F)(F)F)cc4CN4CCCC4)C(=O)O)cccc23)c1=O [Compound 252] | –
< 0.01 | > 1 | Cn1ccc(C(F)(F)F)c(-c2nccc3c(C[C@H](NC(=O)c4c(F)cc(N5CCOC[C@@H]5C(F)(F)F)cc4CN4CCCC4)C(=O)O)cccc23)c1=O [Compound 253] | –
< 0.01 | > 1 | Cn1ccc(C(F)(F)F)c(-c2nccc3c(C[C@H](NC(=O)c4c(F)cc(NCC(F)(F)F)cc4CN4CCCC4)C(=O)O)cccc23)c1=O [Compound 254] | –
< 0.01 | 0.1 to 1 | O=C(N[C@@H](Cc1cccc2c(-c3cccc4ccncc34)nccc12)C(=O)O)c1c(F)cc(N2CCOC[C@@H]2C(F)(F)F)cc1CN1CCCC1 [Compound 255] | –
< 0.01 | 0.1 to 1 | CCOCc1cc(OC)c(-c2nccc3c(C[C@H](NC(=O)c4c(F)cc(N5CCOC[C@@H]5C(F)(F)F)cc4F)C(=O)O)cccc23)c(OC)c1 [Compound 259] | –
